Earlier results as cited in patent publication US11311529B2, “Topical formulations of 5-α-reductase inhibitors and uses thereof” (Varsona Therapeutics, Inc., priority 2018, dated 2022).

What was measured:
DHT = details: 5 mg daily dose, oral, people suffering from BPH
men = details: oral, over a period of 12 to 24 weeks, compared with oral finasteride

Structure (SMILES)	DHT blocked (DHT)	hair count results (men)
C[C@]12C=CC(=O)N[C@@H]1CC[C@@H]1[C@@H]2CC[C@]2(C)[C@@H](C(=O)Nc3cc(C(F)(F)F)ccc3C(F)(F)F)CC[C@@H]12 [oral dutasteride, (5α,17β)-N-[2,5 bis(trifluoromethyl)phenyl]-3-oxo-4-azaandrost-1-ene-17-carboxamide]	98.4%+/−1.2	better hair count results than oral finasteride
CC(C)(C)NC(=O)[C@H]1CC[C@H]2[C@@H]3CC[C@H]4NC(=O)C=C[C@]4(C)[C@H]3CC[C@]12C [oral finasteride, finasteride]	70.8+/−18.3%	–
